Test results taken from publication PMC2916918, “Inorganic pyrophosphatase in uncultivable hemotrophic mycoplasmas: identification and properties of the enzyme from Mycoplasma suis” (BMC Microbiology, 2010).

Molecular target: T1, recombinant M. suis sPPase (rPPase) (Mycoplasma suis, UniProt C4RA40)
T1 construct: gene ppa; tetramer (80 kDa) inferred from immunoblot of native cells only
T1 sequence (C4RA40 1-164): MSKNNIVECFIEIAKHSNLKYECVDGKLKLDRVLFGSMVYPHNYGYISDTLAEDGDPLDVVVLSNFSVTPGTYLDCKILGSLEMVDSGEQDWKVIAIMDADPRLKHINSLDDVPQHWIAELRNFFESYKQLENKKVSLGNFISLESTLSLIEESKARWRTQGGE
Assay: phosphate release, molybdate/ascorbic acid colorimetry (Saheki)
Assay type: biochemical
Conditions: 50 mM MgCl2, pH 9.0, varied PPi (Figure 4E); standard assay: 5 mM Mg2+, 100 mM Tris pH 7.5, 1 mM PPi, 55 °C

For `O=P(O)(O)OP(=O)(O)O` [PPi], the “phosphate release, molybdate/ascorbic acid colorimetry (Saheki)” value was “Activity of M. suis rPPase using different PPi concentrations”.
